Read-outs that look alike come from different tables or passages of the source.
How the values were obtained:
wild type P450cam [1] = molecular target: T1, wild type P450cam (Pseudomonas putida, UniProt P00183); experiment: biochemical; format: binding; settings: read-out: Vs DTT (percentage displacement of DTT bound to P-450)
wild type P450cam [2] = molecular target: T1, wild type P450cam; format: binding; settings: Wild type; 200 μM test compound, phosphate buffer pH 7.4
P-450cam mutant Y96A = P-450cam mutant Y96A (Pseudomonas putida, UniProt P00183, Y97A); experiment: biochemical; format: binding; settings: read-out: Vs DTT (percentage displacement of DTT bound to P-450); for percent displacement of bound DTT at 200 µM: Mutant Y96A, 200 μM DTT, 200 μM test compound, phosphate buffer
[3] = molecular target: T2, P450cam mutant Y96A, C334A (Pseudomonas putida, UniProt P00183, C335A/Y97A); format: biochemical, P. putida; settings: also contains C334A
T2 construct: reconstituted with putidaredoxin and putidaredoxin reductase
Procedure: A solution containing 10 μM putidaredoxin, 2 μM putidaredoxin reductase, 1 μM cytochrome P-450cam mono-oyxgenase (wild-type or mutant) and 1 mM diphenylmethane in 100 mM KC1, 20 mM KH2 PO4 pH7.4 was preincubated at 25° C. in a shaker for 5 min. The enzymatic reaction was initiated by firstly adding NADH to a total concentration of 2 mM. Further four aliquots of NADH (to increase the NADH concentration by 1 mM each time) were added in intervals of 5 min and the reaction quenched after 30 min by adding 0.5 ml chloroform. The chloroform layer was analysed by gas chromatography.
(§1) Reaction products for some substrate compounds have been purified by high performance liquid chromatography and identified by mass spectroscopy, nuclear magnetic resonance, and/or co-elution. […] Table 4(a) to 4(h) details the product distributions for mutant and substrate combinations where this has been elucidated to date.
All mutants listed below also contain the C334A mutation.
Turnover rate measured as NADH consumption rate
(nmole NADH/nmole P450cam/s).

[4] = molecular target: T3, P450cam mutant Y96F, C334A (Pseudomonas putida, UniProt P00183, C335A/Y97F); format: biochemical, P. putida
T3 construct: reconstituted with putidaredoxin and putidaredoxin reductase
Procedure: (§2) […] The enzymatic reaction was initiated by firstly adding NADH to a total concentration of 2 mM. Further four aliquots of NADH (to increase the NADH concentration by 1 mM each time) were added in intervals of 5 min and the reaction quenched after 30 min by adding 0.5 ml chloroform. The chloroform layer was analysed by gas chromatography.
as §1
(§3) Product structure and distributions following oxidation of substrates
(§4) active site mutants. All mutants shown below also contain the C334A

[5] = molecular target: T2, P450cam mutant Y96A, C334A; format: biochemical, P. putida
Procedure: as §2, §1, §3, §4

[6] = Wild type, 200 μM DTT, 200 μM test compound, phosphate buffer

Sequence of P-450cam mutant Y96A (P00183 2-415 Y97A): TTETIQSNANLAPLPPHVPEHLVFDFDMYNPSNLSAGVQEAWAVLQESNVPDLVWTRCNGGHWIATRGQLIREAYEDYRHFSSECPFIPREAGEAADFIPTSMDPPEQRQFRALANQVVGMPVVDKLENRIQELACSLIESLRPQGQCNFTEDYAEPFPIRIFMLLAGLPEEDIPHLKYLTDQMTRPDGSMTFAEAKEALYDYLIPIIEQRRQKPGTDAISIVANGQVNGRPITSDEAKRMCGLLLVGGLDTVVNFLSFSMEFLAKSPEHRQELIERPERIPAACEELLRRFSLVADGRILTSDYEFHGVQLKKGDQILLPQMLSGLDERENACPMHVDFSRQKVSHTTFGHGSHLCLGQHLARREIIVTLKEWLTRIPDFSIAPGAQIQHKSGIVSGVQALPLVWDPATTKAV
T3 sequence (P16640 whole entry): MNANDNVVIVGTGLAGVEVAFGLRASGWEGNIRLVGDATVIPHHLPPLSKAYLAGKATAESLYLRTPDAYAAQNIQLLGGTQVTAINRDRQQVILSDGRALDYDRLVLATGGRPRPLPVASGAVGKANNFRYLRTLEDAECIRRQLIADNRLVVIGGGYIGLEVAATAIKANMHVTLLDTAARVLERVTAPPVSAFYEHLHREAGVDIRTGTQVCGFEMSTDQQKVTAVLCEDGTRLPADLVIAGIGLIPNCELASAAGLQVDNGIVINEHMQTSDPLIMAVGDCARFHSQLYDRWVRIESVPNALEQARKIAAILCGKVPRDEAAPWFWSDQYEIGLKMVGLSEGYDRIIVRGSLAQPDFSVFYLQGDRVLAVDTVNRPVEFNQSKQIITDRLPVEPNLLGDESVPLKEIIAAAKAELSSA
T3 sequence (P00183 2-415 Y97F/C335A): as the sequence (P00183 2-415 Y97A) above, with A96F, C334A counted along it
T3 sequence (P00259 whole entry, further chain): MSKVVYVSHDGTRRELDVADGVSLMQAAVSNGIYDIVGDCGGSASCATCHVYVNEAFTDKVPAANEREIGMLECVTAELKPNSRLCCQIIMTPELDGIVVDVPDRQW
T2 sequence (P00259 whole entry): as the sequence (P00259 whole entry, further chain) above
T2 sequence (P00183 2-415 Y97A/C335A): as the sequence (P00183 2-415 Y97A) above, with C334A counted along it
T2 sequence (P16640 whole entry, further chain): as the sequence (P16640 whole entry) above
T1 sequence (P00183 whole entry): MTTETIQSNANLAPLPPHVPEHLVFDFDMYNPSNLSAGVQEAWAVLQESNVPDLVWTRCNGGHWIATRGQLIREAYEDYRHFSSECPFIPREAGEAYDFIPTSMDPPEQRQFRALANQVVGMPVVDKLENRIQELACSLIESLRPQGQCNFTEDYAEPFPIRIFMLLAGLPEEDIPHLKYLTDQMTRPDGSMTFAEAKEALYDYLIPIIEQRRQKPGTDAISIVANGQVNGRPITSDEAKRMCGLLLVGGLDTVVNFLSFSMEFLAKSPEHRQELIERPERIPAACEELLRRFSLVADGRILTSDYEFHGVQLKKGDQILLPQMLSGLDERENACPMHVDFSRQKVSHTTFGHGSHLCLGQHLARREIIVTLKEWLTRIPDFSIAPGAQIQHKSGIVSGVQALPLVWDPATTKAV

Question: Which results are given for `c1ccc2c(c1)CCCC2` [1,2,3,4-Tetrahydro naphthalene]?
Answer: inhibition at 200 µM (wild type P450cam [1]; [6]): 10%; ΔSpin high/low (percentage of P-450 converted from low- to high-spin) (wild type P450cam [2]): 5%; percent displacement of bound DTT at 200 µM (P-450cam mutant Y96A): 40%

Question: Which results are given for `C1=Cc2ccccc2CC1` [1,2-Dihydronaphthalene]?
Answer: inhibition at 200 µM (wild type P450cam [1]; [6]): 20%; ΔSpin high/low (percentage of P-450 converted from low- to high-spin) (wild type P450cam [2]): 5%; percent displacement of bound DTT at 200 µM (P-450cam mutant Y96A): 90%

Question: Which percent displacement of bound DTT at 200 µM (P-450cam mutant Y96A) does the source give for `CCc1cccc2ccccc12` [1-Ethylnaphthalene] here?
Answer: 20%

Question: What does the source list for `CC(=O)Oc1cccc2ccccc12` [1-Naphthylacetate]?
Answer: inhibition at 200 µM (wild type P450cam [1]; [6]): 5%; percent displacement of bound DTT at 200 µM (P-450cam mutant Y96A): 5%

Question: With `CCCC(=O)Oc1cccc2ccccc12` [1-Naphthylbutyrate] as the compound, how does the inhibition at 200 µM (wild type P450cam [1]; [6]) read?
Answer: 5%

Question: And the percent displacement of bound DTT at 200 µM (P-450cam mutant Y96A)?
Answer: 5%

Question: `CCC(=O)Oc1cccc2ccccc12` [1-Naphthylpropionate] was tested. Which inhibition at 200 µM (wild type P450cam [1]; [6]) did it give?
Answer: 20%

Question: And the percent displacement of bound DTT at 200 µM (P-450cam mutant Y96A)?
Answer: 20%

Question: Which “Turnover rate measured as NADH consumption rate” value (shortened to “Turnover rate measured”) [3] does the source give for `CCC(C)(C)C` [2,2-dimethyl butane] here?
Answer: 14.0 nmole NADH/nmole P450cam/s

Question: `CC(C)C(C)C` [2,3-dimethyl butane] was tested. Which “Turnover rate measured” value [3] did it give?
Answer: 16.8 nmole NADH/nmole P450cam/s

Question: `CCc1ccc2ccccc2c1` [2-Ethylnaphthalene] was tested. Which percent displacement of bound DTT at 200 µM (P-450cam mutant Y96A) did it give?
Answer: 20%

Question: With `O=Cc1ccc2c(c1)Cc1ccccc1-2` [2-Fluorencarboxzaldehyde] as the compound, how does the percent displacement of bound DTT at 200 µM (P-450cam mutant Y96A) read?
Answer: 50%

Question: For `CC(=O)Oc1ccc2ccccc2c1` [2-Naphthylacetate], which inhibition at 200 µM (wild type P450cam [1]; [6]) is on record?
Answer: 5%

Question: What about the percent displacement of bound DTT at 200 µM (P-450cam mutant Y96A) of the same compound?
Answer: 5%

Question: For `CCC(C)C` [2-methyl butane], which “Turnover rate measured” value [3] is on record?
Answer: 4.6 nmole NADH/nmole P450cam/s

Question: `CCCCCC(C)C` [2-methyl heptane] was tested. Which “Turnover rate measured” value [3] did it give?
Answer: 2.1 nmole NADH/nmole P450cam/s

Question: `CCCCC(C)C` [2-methyl hexane] was tested. Which “Turnover rate measured” value [3] did it give?
Answer: 10.6 nmole NADH/nmole P450cam/s

Question: And the “Relative activity (WT = 1)” value [4]?
Answer: 2.3

Question: And the “Products (%): 2-methyl-2-hexanol” value ([4]; 2-methyl hexane)?
Answer: 72%

Question: What about the “Products (%): 2-methyl-3-hexanol” value ([4]; 2-methyl hexane) of the same compound?
Answer: 7%

Question: What about the “Products (%): 5-methyl-2-hexanol” value ([4]; 2-methyl hexane) of the same compound?
Answer: 5%

Question: And the “Products (%): 5-methyl-2-hexanone” value ([4]; 2-methyl hexane)?
Answer: 16%

Question: What about the “Relative activity (WT = 1)” value [5] of the same compound?
Answer: 2.6

Question: What about the “Products (%): 2-methyl-2-hexanol” value ([5]; 2-methyl hexane) of the same compound?
Answer: 74%

Question: What about the “Products (%): 2-methyl-3-hexanol” value ([5]; 2-methyl hexane) of the same compound?
Answer: 4%

Question: And the “Products (%): 5-methyl-2-hexanol” value ([5]; 2-methyl hexane)?
Answer: 8%

Question: And the “Products (%): 5-methyl-2-hexanone” value ([5]; 2-methyl hexane)?
Answer: 14%

Question: How did the “Turnover rate measured” value [3] turn out when `CCC(CC)CC` [3-ethyl pentane] was run?
Answer: 16.2 nmole NADH/nmole P450cam/s

Question: With `O=C1c2ccccc2-c2ccccc21` [9-Fluorenone] as the compound, how does the inhibition at 200 µM (wild type P450cam [1]; [6]) read?
Answer: 20%

Question: What about the percent displacement of bound DTT at 200 µM (P-450cam mutant Y96A) of the same compound?
Answer: 5%

Question: With `CC1(C)[C@@H]2CC[C@@]1(C)C(=O)C2=O` [(1R)-(-)-Camphorquinone] as the compound, how does the inhibition at 200 µM (wild type P450cam [1]; [6]) read?
Answer: 80%

Question: And the “ΔSpin high/low (percentage of P-450 converted from low- to high-spin)” value (wild type P450cam [2])?
Answer: 80%

Question: And the percent displacement of bound DTT at 200 µM (P-450cam mutant Y96A)?
Answer: 80%

Question: Which inhibition at 200 µM (wild type P450cam [1]; [6]) does the source give for `CC1(C)C(=O)[C@]2(C)CC[C@H]1C2` [(1R)-(-)-Fenchone] here?
Answer: 70%

Question: What about the “ΔSpin high/low (percentage of P-450 converted from low- to high-spin)” value (wild type P450cam [2]) of the same compound?
Answer: 40%

Question: What about the percent displacement of bound DTT at 200 µM (P-450cam mutant Y96A) of the same compound?
Answer: 80%

Question: `C=C(C)[C@H]1CC=C(C)C(=O)C1` [(S)-(+)-Carvone] was tested. Which inhibition at 200 µM (wild type P450cam [1]; [6]) did it give?
Answer: 60%

Question: And the “ΔSpin high/low (percentage of P-450 converted from low- to high-spin)” value (wild type P450cam [2])?
Answer: 10%

Question: What about the percent displacement of bound DTT at 200 µM (P-450cam mutant Y96A) of the same compound?
Answer: 80%

Question: `O=C1c2ccccc2Cc2ccccc21` [Anthrone] was tested. Which inhibition at 200 µM (wild type P450cam [1]; [6]) did it give?
Answer: 5%

Question: And the percent displacement of bound DTT at 200 µM (P-450cam mutant Y96A)?
Answer: 5%

Question: How did the inhibition at 200 µM (wild type P450cam [1]; [6]) turn out when `c1ccc(COCc2ccccc2)cc1` [Benzylether] was run?
Answer: 5%

Question: For `c1ccc(CCc2ccccc2)cc1` [Bibenzyl], which percent displacement of bound DTT at 200 µM (P-450cam mutant Y96A) is on record?
Answer: 55%

Question: For `c1ccc(-c2ccccc2)cc1` [Biphenyl], which inhibition at 200 µM (wild type P450cam [1]) is on record?
Answer: 20%

Question: What about the inhibition at 200 µM (P-450cam mutant Y96A) of the same compound?
Answer: 90%

Reference: patent US6100074A, “Mutant mono-oxygenase cytochrome P-450 cam” (BG plc, priority 1994, dated 2000)
